Target: T1, IRAK4 (Homo sapiens, UniProt Q9NWZ3)
T1 construct: endogenous in cells; host or cells: THP-1 cells
T1 sequence (Q9NWZ3 1-460): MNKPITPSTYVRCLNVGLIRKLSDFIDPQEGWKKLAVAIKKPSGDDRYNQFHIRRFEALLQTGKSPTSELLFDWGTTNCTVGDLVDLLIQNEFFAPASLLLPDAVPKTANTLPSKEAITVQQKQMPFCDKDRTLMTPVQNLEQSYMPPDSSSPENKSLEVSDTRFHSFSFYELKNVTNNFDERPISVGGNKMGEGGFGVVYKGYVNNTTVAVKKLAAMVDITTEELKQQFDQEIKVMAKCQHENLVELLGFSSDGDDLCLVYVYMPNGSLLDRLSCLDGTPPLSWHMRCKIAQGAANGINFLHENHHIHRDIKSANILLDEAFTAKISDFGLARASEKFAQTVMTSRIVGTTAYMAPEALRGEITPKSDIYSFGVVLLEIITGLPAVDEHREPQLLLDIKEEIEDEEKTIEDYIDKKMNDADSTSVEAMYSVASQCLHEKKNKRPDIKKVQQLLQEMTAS
Experiment: LVL THP1 HTRF (THP1 Homogeneous Time Resolved Fluorescence)
Type: cell-based
Conditions: THP1 cells, 18 h incubation with compound; for DC50: read-out: LVL THP1 HTRF EC50
Method in brief: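 THP-1 cells in phenol red-free RPMI with 10% FBS were dosed with compound (20 nL in DMSO) for 18 h at 37° C. After 2 h lysis, IRAK4 was detected with anti-IRAK4-d2/anti-IRAK4-K HTRF antibodies for 18 h at room temperature and read at 665/615 nm; a parallel CTG plate was run.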

## C[C@H](C#N)Nc1cc(Nc2ncc(C#N)cn2)ncc1-n1cc([C@H]2CC[C@H](CCN3CCN(c4ccc(N5CCC(=O)NC5=O)cc4)[C@H](C)C3)CC2)nn1 [P-387]
  LVL THP1 HTRF YMIN: 9.8%
  DC50: 14.1 nM

## C[C@H](C#N)Nc1cc(-n2ncc3cc(C#N)cnc32)ncc1-n1cc([C@H]2CC[C@H](CCN3CCC(c4ccc(NC5CCC(=O)NC5=O)cc4)CC3)CC2)nn1 (some centres unmarked) [P-343]
  LVL THP1 HTRF YMIN: 87.0%
  DC50: 103 nM

## C[C@H](C#N)Nc1cc(-n2ncc3cc(C#N)cnc32)ncc1-n1cc([C@H]2CC[C@H](CCN3CCC(c4ccc([C@@]5(F)CCC(=O)NC5=O)cc4)CC3)CC2)nn1 (single isomer, unassigned) [P-337]
  LVL THP1 HTRF YMIN: 2.7%
  DC50: 3.8 nM

## O=C1CCC(N2C(=O)c3ccc(NCCCNC(=O)C4CCC(NC(=O)c5cnc(Nc6ccc7ncsc7c6)cc5NC5CCCC5)CC4)cc3C2=O)C(=O)N1 (centres unmarked) [P-1]
  LVL THP1 HTRF YMIN: 33.3%
  DC50: 148 nM

## C[C@H](C#N)Nc1cc(-n2ncc3cc(C#N)cnc32)ncc1-n1cc([C@H]2CC[C@](O)(CCN3CCN(c4ccc(N5CCC(=O)NC5=O)cc4)CC3)CC2)nn1 (single isomer, unassigned) [P-429]
  LVL THP1 HTRF YMIN: 5.4%
  DC50: 59.4 nM

## C[C@H](C#N)Nc1cc(-n2ncc3cc(C#N)cnc32)ncc1C(=O)N[C@H]1CC[C@H](CCN2CCC(F)(c3ccc([C@@]4(C)CCC(=O)NC4=O)cc3)CC2)CC1 [P-274]
  LVL THP1 HTRF YMIN: 3.5%
  DC50: 5.8 nM

## C[C@H](C#N)Nc1cc(-n2ncc3cc(C#N)cnc32)ncc1-n1cc([C@H]2CC[C@H](CCN3CC[C@H]4[C@@H]3CCN4c3ccc(N4CCC(=O)NC4=O)c(F)c3)CC2)nn1 (single isomer, unassigned) [P-461]
  LVL THP1 HTRF YMIN: 5.4%
  DC50: 3.7 nM

## C[C@H](C#N)Nc1cc(Nc2ncc(F)cc2F)ncc1-n1cc([C@H]2CC[C@H](CCN3CCN(c4ccc(C5CCC(=O)NC5=O)cc4)CC3)CC2)nn1 (some centres unmarked) [P-382]
  LVL THP1 HTRF YMIN: 4.1%
  DC50: 28 nM

## C[C@H](C#N)Nc1cc(Nc2ncc(C#N)cc2Cl)ncc1-n1cc([C@H]2CC[C@H](CCN3CCN(c4ccc(N5CCC(=O)NC5=O)cc4)CC3)CC2)nn1 [P-384]
  LVL THP1 HTRF YMIN: 6.5%
  DC50: 45.4 nM

## C[C@H](C#N)Nc1cc(-n2ncc3cc(C#N)cnc32)ncc1-n1cc(C2CCC(CCN3[C@@H](C)CN(c4ccc([C@@]5(C)CCC(=O)NC5=O)cc4)C[C@@H]3C)CC2)nn1 (some centres unmarked) [P-238]
  LVL THP1 HTRF YMIN: 1.1%
  DC50: 25 nM

## C[C@H](C#N)Nc1cc(-n2ncc3cc(C#N)c(N)nc32)ncc1-n1cc([C@H]2CC[C@H](CCN3CCN(c4ccc([C@@]5(C)CCC(=O)NC5=O)cn4)[C@@H](C)C3)CC2)nn1 (single isomer, unassigned) [P-259]
  LVL THP1 HTRF YMIN: 89.5%
  DC50: 26.1 nM

## C[C@H](C#N)Nc1cc(-n2ncc3cc(C#N)c(N)nc32)ncc1-n1cc(C2CCC(CCN3CCN(c4ccc([C@@]5(C)CCC(=O)NC5=O)cc4)CC3)CC2)nn1 (some centres unmarked) [P-222]
  LVL THP1 HTRF YMIN: 2.1%

## C[C@H](C#N)Nc1cc(-n2ncc3cc(C#N)c(N)nc32)ncc1-n1cc([C@H]2CC[C@H](CCN3[C@@H](C)CN(c4ccc([C@@]5(C)CCC(=O)NC5=O)cn4)C[C@@H]3C)CC2)nn1 (single isomer, unassigned) [P-252]
  LVL THP1 HTRF YMIN: 1.7%
  DC50: 5.4 nM

## C[C@H](C#N)Nc1cc(-n2ncc3cc(C#N)cnc32)ncc1-c1cnn(C2CCC(CCN3CCN(c4ccc(C5CCC(=O)NC5=O)cc4)CC3)CC2)c1 (some centres unmarked) [P-203]
  LVL THP1 HTRF YMIN: 3.0%

## C[C@H](C#N)Nc1cc(-n2ncc3cc(C#N)cnc32)ncc1-n1cc([C@H]2CC[C@H](CCN3CCN(c4ccc5c(N6CCC(=O)NC6=O)nn(C)c5c4)[C@H](C)C3)CC2)nn1 [P-498]
  LVL THP1 HTRF YMIN: −2.8%
  DC50: 2 nM

## C[C@H](C#N)Nc1cc(-n2ncc3cc(C#N)cnc32)ncc1-n1cc([C@H]2CC[C@](O)(CCN3CCN(c4ccc([C@@]5(C)CCC(=O)NC5=O)nc4)CC3)CC2)nn1 (single isomer, unassigned) [P-295]
  LVL THP1 HTRF YMIN: 39.8%
  DC50: 350 nM

## CCc1nc2c(cnn2-c2cc(N[C@H](C)C#N)c(C(=O)N[C@H]3CC[C@H](CCN4CCN(c5ccc(C6CCC(=O)NC6=O)cc5)CC4)CC3)cn2)cc1C#N (some centres unmarked) [P-192]
  LVL THP1 HTRF YMIN: 1.0%
  DC50: 58 nM

## C[C@H](C#N)Nc1cc(-n2ncc3cc(C#N)cnc32)ncc1-n1cc([C@H]2CC[C@H](CCN3CCC(O)(c4ccc(N5CCC(=O)NC5=O)cc4)CC3)CC2)nn1 [P-353]
  LVL THP1 HTRF YMIN: 88.5%
  DC50: 1000 nM

## C[C@H](C#N)Nc1cc(-n2ncc3cc(C#N)cnc32)ncc1-n1cc(C2CCC(CCN3CCN(c4ccc(N5CCC(=O)NC5=O)cc4)[C@@H]4CCC[C@@H]43)CC2)nn1 (single isomer, unassigned) [P-505]
  LVL THP1 HTRF YMIN: 9.83%
  DC50: 197 nM

## C[C@H](C#N)Nc1cc(-n2ncc3cc(C#N)c(N)nc32)ncc1-n1cc([C@H]2CC[C@H](CCN3CCN(c4ccc(N5CCC(=O)NC5=O)cn4)[C@H](C)C3)CC2)nn1 [P-463]
  LVL THP1 HTRF YMIN: −3.4%
  DC50: 0.1 nM

## C[C@H](C#N)Nc1cc(-n2ncc3cc(C#N)cnc32)ncc1-n1cc([C@H]2CC[C@H](CCN3CC[C@H]4[C@@H]3CCN4c3ccc([C@@]4(C)CCC(=O)NC4=O)cc3)CC2)nn1 (single isomer, unassigned) [P-454]
  LVL THP1 HTRF YMIN: 1.1%
  DC50: 13.6 nM

## C[C@H](C#N)Nc1cc(-n2ncc3cc(C#N)cnc32)ncc1-n1cc([C@H]2CC[C@](O)(CCN3CCN(c4ccc([C@@]5(C)CCC(=O)NC5=O)nc4)CC3)CC2)nn1 (single isomer, unassigned) [P-419]
  LVL THP1 HTRF YMIN: −0.8%
  DC50: 31.6 nM

## C[C@H](C#N)Nc1cc(-n2ncc3ccc(N4C[C@H]5C[C@@H]4CO5)nc32)ncc1-n1cc([C@H]2CC[C@H](CCN3CCN(c4ccc([C@@]5(C)CCC(=O)NC5=O)cc4)CC3)CC2)nn1 [P-247]
  LVL THP1 HTRF YMIN: 13.4%
  DC50: 191 nM

## C[C@H](C#N)Nc1cc(Nc2ncc(C#N)cc2Cl)ncc1-n1cc([C@H]2CC[C@H](CCN3CC[C@H]4[C@@H]3CCN4c3ccc(N4CCC(=O)NC4=O)cc3)CC2)nn1 (single isomer, unassigned) [P-500]
  LVL THP1 HTRF YMIN: −0.52%
  DC50: 43.4 nM

## C[C@H](C#N)Nc1cc(-n2ncc3cc(C#N)cnc32)ncc1-n1cc([C@H]2CC[C@H](CCN3CCN(Cc4ccc(N5CCC(=O)NC5=O)cc4)CC3)CC2)nn1 [P-422]
  LVL THP1 HTRF YMIN: 39.6%
  DC50: 979 nM

## COc1cc([C@@]2(C)CCC(=O)NC2=O)ccc1N1CCN(CC[C@H]2CC[C@H](c3cn(-c4cnc(-n5ncc6cc(C#N)c(N)nc65)cc4N[C@H](C)C#N)nn3)CC2)C[C@H]1C (single isomer, unassigned) [P-305]
  LVL THP1 HTRF YMIN: 84.3%
  DC50: 0.2 nM
